In a melting point compilation (Tetko et al.; mined from patent text by program, amines drawn as free bases though some values may be those of a salt) one finds melting point data, which are given here for 88 compounds.

For the compound `CC(C)n1nc(-c2cnc(N)nc2-c2cccnc2)ccc1=O`, the melting point came to 204 °C. As for `CCCCNC(=O)N(N)CCCC`, the melting point lay in the range of 34 to 36 °C. As for `CCC(=O)Nc1ccc2nc(C(=O)NCc3cccc(OC)c3)[nH]c(=O)c2c1`, the figure is 222 to 223 °C; as for `CC(C)(C)OC(=O)CN1CCC(CNC(=O)N2CCN(C3CCN(C(=O)OC(C)(C)C)CC3)CC2)CC1`, 131 to 133 °C. For `COc1ccc(CCCCNC(=O)CCl)cc1`, the melting point lay within 99 to 100 °C. For `CC(C)(Cc1c(Sc2ccccc2)c2cc(-c3ccccc3)ccc2n1Cc1ccc(Cl)cc1)C(=O)O`, the melting point fell in the range of 182 to 183 °C. With `CO[Si](OC)(OC)O[Si](OC)(OC)O[Si](OC)(OC)OC`, the melting point is below -70 °C. Consider `CC(C)(C)OC(=O)C(N)CCCCNC(=O)c1ccc(Cl)c(S(N)(=O)=O)c1` (stereo not drawn), for which the melting point fell in the range of 158 to 160 °C.

The compound `O=[N+]([O-])c1ccc(CSC(=S)N2Cc3[nH]c4ccccc4c3CC2CO)cc1` (stereo not drawn) registered a melting point of 193 to 194 °C.

Compound `Cc1nnsc1C(=O)Nc1ccc(-n2nc(C(F)(F)F)cc2C2CC2)cc1` gave a melting point of 84 to 89 °C. In turn, `Nc1ncnc2c1c(-c1ccc(Oc3ccccc3CN3CCOCC3)cc1)cn2C1CCOC1` (stereo not drawn) registered a melting point of 169 to 171 °C. Compound `CCOc1cc(C)c(CCl)c(C)c1C` showed a melting point of 63 to 64 °C.

`CC(=O)OCC1OC(O)(c2ccc(Cl)cc2)C(OC(C)=O)C(OC(C)=O)C1OC(C)=O` (stereo not drawn) had a melting point of 124 °C.

`Cc1cc(C(N)=O)c(N)s1` displayed a melting point of 140 to 141 °C. Regarding `CC(C)[C@H](NC(=O)OC(C)(C)C)C(=O)C1CC(=O)NC1=O` (stereo partly drawn), the melting point lay within 123 to 124 °C. On to `O=C(NCCC12CCC(=O)N1C(=O)CC2)OCc1ccccc1`, for which the melting point was in the range of 118 to 120 °C. Consider `CON(C)C(=O)c1cc(-n2c(=O)cc(C(F)(F)F)[nH]c2=O)c(F)cc1Cl`, for which the melting point is above 220 °C. As for `CC1(C)CCSc2ccc(C(O)COc3ccc(C(=O)O)c(O)c3)cc21` (stereo not drawn), the figure is 166 to 167 °C; as for `CN(c1ccccc1)c1ncnc2c(I)cnn12`, 193 °C. With `Cc1ccc([N+](=O)[O-])c(C=C2NC(=O)NC2=O)c1C`, the melting point lay in the range of 293 to 295 °C. For the compound `Cc1ccc(N(C(=O)CCl)c2c(F)cccc2Cl)cc1`, the melting point is 80 to 83 °C. As for `O=C(O)CCc1nn(-c2ccc(F)cc2)c2c1CCCC2`, the melting point was in the range of 128 to 129 °C. As to `COc1cccc(N2CCN(c3c(C)c(C)c4c(c3C)C(N3CCCC3)C(C)(C)O4)CC2)c1` (stereo not drawn), the melting point lay in the range of 106 to 107 °C. Compound `CCCCOCCCNc1ccc(-n2cc(C(F)(F)F)ccc2=O)c(Cl)c1` yielded a melting point of 83 to 85 °C.

As for `Nc1c(-c2cc(Cl)ccc2O)c2ccccc2[nH]c1=O`, the melting point lay in the range of 265 to 268 °C. Take `Cc1ccc(S(=O)(=O)ON=C(c2cccc([N+](=O)[O-])c2)n2nc(C)cc2N)cc1`: the melting point fell in the range of 156 to 158 °C. On to `O=C1COCCN1c1ccc(N2C[C@@H](CI)OC2=O)cc1`, for which the melting point was 154 to 157 °C. Regarding `COc1ccc2c(c1)C(NCc1cc(OC)c(OC)cc1N)CCO2` (stereo not drawn), the melting point was in the range of 90 to 92 °C. `CC(C)c1nc(N(C)S(C)(=O)=O)nc(-c2ccc(F)cc2)c1/C=C/C=O` showed a melting point of 86.5 °C. As for `CCCCCN(C(=O)Nc1ccc(C(=O)O)cc1)c1ccc2c(c1)C(C)(C)CCC2(C)C`, the figure is 184 to 186 °C; as for `Cc1cc(C2c3cc4c(cc3CC(C)NN2C(=O)NC(C)c2ccccc2)OCO4)ccc1[N+](=O)[O-]` (stereo not drawn), 202 to 204 °C; as for `COc1ncnc(OC)c1C(C(C)C)N(C)C(=O)Cc1ccc(Cl)cc1` (stereo not drawn), 107 to 109 °C. Take `COc1ccc(NC(=O)c2ccccc2-c2cccc(OC)c2)cc1`: the melting point lay within 107 to 109 °C.

As for `COCN1C(=O)COc2ccc([N+](=O)[O-])cc21`, the melting point was in the range of 120 to 122 °C. As for `CCN1C(=O)C(C)(C)C(=O)N(C)c2cc(OCCCn3cc(-c4ccc(OC)nc4)c(=O)c4ccccc43)ccc21`, the figure is 159 to 161 °C. Compound `CCOC(=O)c1cc2c(C)ccc(N(C)S(=O)(=O)c3cccnc3Cl)c2[nH]1` showed a melting point of 158 to 159 °C. The figure for `CCC1CC(=O)N(Cc2ccc(C(=O)NC3CCCC3)cc2)N=C1c1ccc(OC)c(OC)c1` (stereo not drawn) is 154 °C; for `Cc1nc2c(cc1Br)c(=O)c(C(=O)NCc1ccc(Cl)cc1)cn2C` it is 266 to 268 °C. Regarding `BrCCOc1ccc2[nH]c3ccccc3c2c1`, the melting point was 135 to 136 °C. Consider `O=[N+]([O-])c1ccc2c(C3CCN(C[C@H](O)COc4cccc5[nH]ccc45)CC3)c[nH]c2c1`, for which the melting point lay in the range of 212 to 214 °C. `CC(Oc1ccc(Cl)nc1Cl)C(=O)O` (stereo not drawn) came in with a melting point of 128 to 131 °C. The compound `CC(C)COc1ccccc1C(=N)N` yielded a melting point of 49 to 51 °C. `COc1cc(NC(=O)CCCCCN2CCN(C3CCCCC3)CC2)c2nccc(C)c2c1` registered a melting point of 109 to 110 °C. Compound `Nc1ccc2c(c1)CC(NS(=O)(=O)c1ccccc1)C2` (stereo not drawn) showed a melting point of 105 to 107 °C. As for `Cc1oc(-c2ccccc2)nc1COc1ccc(COc2ncccc2CC(=O)O)cn1`, the figure is 147 to 148 °C; as for `O=c1c(CCc2ccncc2)cc2cccnc2n1-c1cccc([N+](=O)[O-])c1`, 213 to 214 °C; as for `CC(C)(C(=O)O)c1ccc2cc(O)ccc2c1`, 208 to 210 °C. `CNS(=O)(=O)c1cc2ccccc2cc1CC(=O)O` came in with a melting point of 185 to 186 °C.

In the case of `O=C(Nc1cccc(C(F)(F)F)c1)c1cccc(Oc2cccc(C(F)(F)F)c2)n1`, the melting point was in the range of 93.1 to 93.7 °C.

Take `O=S(=O)(c1ccccc1)n1c(-c2c(F)cccc2F)nc2ccccc21`: the melting point is 104 to 106 °C. `COc1ccc(-n2nc(C(=O)CCCO)cc2-c2ccc(S(C)(=O)=O)cc2)cc1` registered a melting point of 125 to 127 °C. As for `COc1ccc(CN(C)CCc2ccc(NC(=O)c3cccc4c(=O)c5cccc(F)c5[nH]c34)cc2)cc1OC`, the figure is 175 °C; as for `CC(C)(C)OC(=O)NCCCC(c1cc(F)ccc1F)S(=O)(=O)c1ccc(Cl)cc1` (stereo not drawn), 119 to 120 °C. As to `COc1noc2c1CN(C(C)=O)CC2`, the melting point lay in the range of 40 to 42 °C. As for `O=C(OCc1ccccc1Cl)c1ncn2c1[C@@H]1CCCN1C(=O)c1c(Cl)cccc1-2`, the melting point lay in the range of 192 to 193 °C. The figure for `Oc1ccc(Oc2ccc(OCC(O)CCc3cccnc3)cc2)cc1` (stereo not drawn) is 89 to 91 °C; for `O=C(NC1(Cc2ccccc2)C=CCC1)C(Cl)(Cl)Cl` (stereo not drawn) it is 127 to 128 °C; for `Cc1ccc2c(c1)c(N1CCNCC1)c(C#N)c(=O)n2Cc1ccc(F)cc1` it is 121 °C. In the case of `COC1CN(C)S(=O)(=O)c2sccc21` (stereo not drawn), the melting point fell in the range of 61 to 63 °C. In turn, `CN(C)C1=CC(=NS(=O)(=O)c2cccs2)c2ccccc2C1=O` showed a melting point of 183 to 185 °C. The figure for `Cn1cc2c(n1)CCCc1c-2cnn1C` is 176 to 178 °C; for `CN1C(=O)C2C3C=CC(C3)C2(c2cccc(Cl)c2)C1=O` (stereo not drawn) it is 98 to 100 °C; for `O=C(c1ccccc1)C(Br)(Br)Br` it is 63 to 64 °C. As for `C=CN(C(=O)CCl)c1c(CC)cccc1CC`, the figure is 45 to 47 °C.

In the case of `CCN(C(=O)OC(C)(C)C)n1c(C)nc(N2CCc3ccccc3CC2)c(C#N)c1=O`, the melting point was 86 to 88 °C. In turn, `CCOC(=O)C(C#N)C1(C#N)C(=O)N(Cc2ccc(Br)cc2F)c2c(C)cccc21` (stereo not drawn) yielded a melting point of 130 to 132 °C. As to `COc1ccccc1Oc1c(NS(=O)(=O)c2ccc(CC(C)C)cc2)nc(-c2ncccn2)nc1OCCOC(N)=O`, the melting point lay in the range of 138 to 140 °C. As for `Cc1c(C(=O)c2ccccc2)c(=O)n(C)c(=O)n1C`, the melting point is 132 to 134 °C.

`COC(=O)NNC(=O)c1cc(OC)c(OC)c(OC)c1` displayed a melting point of 145 °C. Compound `CCCC(=O)NCc1nc(-c2ccc3c(c2)Nc2ccccc2S3)cs1` yielded a melting point of 218 to 220 °C.

Turning to `Nc1ccc2c(c1)Cc1c(-c3ccccc3)n[nH]c1-2`, the melting point lay within 228 to 230 °C.

`COc1cccc(C(=O)c2[nH]c3cc(Cl)ccc3c2NC(C)=O)c1` displayed a melting point of 161 to 162 °C.

The compound `CC(C)(C)OC(=O)N1CCC(C#N)(c2ccccc2Cl)CC1` showed a melting point of 165 to 166 °C. `COc1cc(NC(C)=O)c(Cl)cc1C(=O)N[C@H]1CCN(CCCOc2ccc(F)cc2)C[C@H]1OC` (relative stereo) showed a melting point of 176 °C. For the compound `Nc1[nH]nc(-c2ccncc2)c1-c1ccc(F)cc1`, the melting point lay in the range of 116 to 118 °C. The compound `CCNC(=O)n1nc(Oc2ccc(C#N)cc2C(F)(F)F)cc1C` yielded a melting point of 103 to 105 °C.

`Cn1cc(C(=O)NCc2ccc(Cl)cc2)c(=O)c2cc(CN3CCOCC3)cc(C#CCC[C@@H]3COC(=O)N3)c21`: the melting point lay within 171 to 173 °C.

The compound `CCC(CC)N(C[C@@H]1CCC[C@H](CN(C(=O)Nc2ccc(N(C)C)cc2)C(CC)CC)C1)C(=O)Nc1ccc(N(C)C)cc1` had a melting point of 157 to 160 °C. Turning to `CC(C)(C)OC(=O)N1CCC(C(=O)Nc2ccccc2Oc2ccc(Cl)cc2)CC1`, the melting point lay in the range of 97 to 99 °C. With `CCCCCC1=CCC(c2cc(F)cc(F)c2)C=C1` (stereo not drawn), the melting point stood at 31 °C. Consider `Cc1nc2c(N)cc(S(=O)(=O)N(C)C)cc2n1C`, for which the melting point lay in the range of 255 to 258 °C. `CCC1CSC(CCc2ccccc2)(Cn2ccnc2)S1` (stereo not drawn) returned a melting point of 115 to 118 °C. `CCOC(=O)CCN(CC(N)=O)C(=O)Cn1cc(C)c(=O)[nH]c1=O` yielded a melting point of 207 to 208 °C. As for `O=c1[nH]c2cc(Cl)cc(Cl)c2c(=O)n1Cc1ccncc1`, the melting point fell in the range of 354 to 364 °C. `O=[N+]([O-])C=C1NCCN1Cc1cc(Br)no1` had a melting point of 202 °C. The compound `CN1CCN(c2cccc3c2CC(C(=O)Nc2ccc(N4CCOCC4)cc2)C3)CC1` (stereo not drawn) registered a melting point of 248 to 249 °C. The compound `CCN1CCc2ccc(Nc3ncc(Cl)c(NCC(C)(C)NS(C)(=O)=O)n3)cc2CC1` showed a melting point of 118 to 121 °C. For `CNC(=O)ON(Cc1ccc(OCc2ccccc2)cc1)C(C)=O`, the melting point lay within 101 to 102 °C.

What is called melting point is the temperature of the solid-liquid transition.
